Assays:
Experiment in all cases: post-emergent herbicidal activity, greenhouse
Format in all cases: in vivo
[1] = system: Barnyardgrass
Method in brief: (§1)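 Post-emergence foliar spray at tabulated application rates, using aliquots of a 1.0% stock in acetone, THF or water plus ~0.4% emulsifier, applied to 2–3-week-old greenhouse plants. Plant injury was rated relative to controls roughly two and four weeks after treatment.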

[2] = system: Canada Thistle; settings: Table I
Method in brief: as §1

[3] = system: Cocklebur
Method in brief: as §1

[4] = system: Crabgrass; settings: Table II
Method in brief: as §1

[5] = system: Downy Brome
Method in brief: as §1

[6] = system: Hemp Sesbania; settings: Table II
Method in brief: as §1

[7] = system: Johnsongrass; settings: Table I
Method in brief: as §1

[8] = system: Lambsquarters
Method in brief: as §1

[9] = system: Morningglory
Method in brief: as §1

[10] = system: Panicum Spp; settings: Table II
Method in brief: as §1

[11] = system: Quackgrass; settings: Table I
Method in brief: as §1

[12] = system: Rice; settings: Table II
Method in brief: as §1

[13] = system: Smartweed
Method in brief: as §1

[14] = system: Sorghum; settings: Table II
Method in brief: as §1

[15] = system: Soybean; settings: Table II
Method in brief: as §1

[16] = system: Sugar Beet; settings: Table II
Method in brief: as §1

[17] = system: Velvetleaf
Method in brief: as §1

[18] = system: Wheat; settings: Table II
Method in brief: as §1

[19] = system: Wild Buckwheat; settings: Table II
Method in brief: as §1

[20] = system: Yellow Nutsedge; settings: Table I
Method in brief: as §1

## CCOC(=O)CNCP(=O)(OCC(=O)OCC)OCC(=O)OCC [Example 13, glycine, N-[bis(ethoxycarbonylmethoxy)phosphinylmethyl]-, ethyl ester]
[1]; Table I, 2 WAT, 5.6 kg/h
  post-emergent herbicidal activity index: 0 (0-24% control)
[1]; Table I, 2 WAT, 11.2 kg/h
  post-emergent herbicidal activity index: 0 (0-24% control)
[1]; Table II, 2 WAT, 0.28 kg/h
  post-emergent herbicidal activity index: 0 (0-24% control)
[1]; Table II, 2 WAT, 1.12 kg/h
  post-emergent herbicidal activity index: 0 (0-24% control)
[1]; Table II, 2 WAT, 5.6 kg/h
  post-emergent herbicidal activity index: 1 (25-49% control)
[2]; 2 WAT, 5.6 kg/h
  post-emergent herbicidal activity index: 0 (0-24% control)
[2]; 2 WAT, 11.2 kg/h
  post-emergent herbicidal activity index: 0 (0-24% control)
[3]; Table I, 2 WAT, 5.6 kg/h
  post-emergent herbicidal activity index: 0 (0-24% control)
[3]; Table I, 2 WAT, 11.2 kg/h
  post-emergent herbicidal activity index: 0 (0-24% control)
[3]; Table II, 2 WAT, 0.28 kg/h
  post-emergent herbicidal activity index: 0 (0-24% control)
[3]; Table II, 2 WAT, 1.12 kg/h
  post-emergent herbicidal activity index: 0 (0-24% control)
[3]; Table II, 2 WAT, 5.6 kg/h
  post-emergent herbicidal activity index: 1 (25-49% control)
[4]; 2 WAT, 0.28 kg/h
  post-emergent herbicidal activity index: 0 (0-24% control)
[4]; 2 WAT, 1.12 kg/h
  post-emergent herbicidal activity index: 0 (0-24% control)
[4]; 2 WAT, 5.6 kg/h
  post-emergent herbicidal activity index: 3 (75-99% control)
[5]; Table I, 2 WAT, 5.6 kg/h
  post-emergent herbicidal activity index: 0 (0-24% control)
[5]; Table I, 2 WAT, 11.2 kg/h
  post-emergent herbicidal activity index: 0 (0-24% control)
[5]; Table II, 2 WAT, 0.28 kg/h
  post-emergent herbicidal activity index: 0 (0-24% control)
[5]; Table II, 2 WAT, 1.12 kg/h
  post-emergent herbicidal activity index: 0 (0-24% control)
[5]; Table II, 2 WAT, 5.6 kg/h
  post-emergent herbicidal activity index: 0 (0-24% control)
[6]; 2 WAT, 0.28 kg/h
  post-emergent herbicidal activity index: 0 (0-24% control)
[6]; 2 WAT, 1.12 kg/h
  post-emergent herbicidal activity index: 1 (25-49% control)
[7]; 2 WAT, 5.6 kg/h
  post-emergent herbicidal activity index: 0 (0-24% control)
[7]; 2 WAT, 11.2 kg/h
  post-emergent herbicidal activity index: 0 (0-24% control)
[8]; Table I, 2 WAT, 11.2 kg/h
  post-emergent herbicidal activity index: 0 (0-24% control)
[8]; Table II, 2 WAT, 1.12 kg/h
  post-emergent herbicidal activity index: 0 (0-24% control)
[9]; Table I, 2 WAT, 5.6 kg/h
  post-emergent herbicidal activity index: 0 (0-24% control)
[9]; Table I, 2 WAT, 11.2 kg/h
  post-emergent herbicidal activity index: 1 (25-49% control)
[9]; Table II, 2 WAT, 0.28 kg/h
  post-emergent herbicidal activity index: 0 (0-24% control)
[9]; Table II, 2 WAT, 1.12 kg/h
  post-emergent herbicidal activity index: 0 (0-24% control)
[9]; Table II, 2 WAT, 5.6 kg/h
  post-emergent herbicidal activity index: 1 (25-49% control)
[10]; 2 WAT, 0.28 kg/h
  post-emergent herbicidal activity index: 0 (0-24% control)
[10]; 2 WAT, 1.12 kg/h
  post-emergent herbicidal activity index: 0 (0-24% control)
[10]; 2 WAT, 5.6 kg/h
  post-emergent herbicidal activity index: 0 (0-24% control)
[11]; 2 WAT, 5.6 kg/h
  post-emergent herbicidal activity index: 1 (25-49% control)
[11]; 2 WAT, 11.2 kg/h
  post-emergent herbicidal activity index: 0 (0-24% control)
[12]; 2 WAT, 0.28 kg/h
  post-emergent herbicidal activity index: 0 (0-24% control)
[12]; 2 WAT, 1.12 kg/h
  post-emergent herbicidal activity index: 0 (0-24% control)
[12]; 2 WAT, 5.6 kg/h
  post-emergent herbicidal activity index: 0 (0-24% control)
[13]; Table I, 2 WAT, 5.6 kg/h
  post-emergent herbicidal activity index: 0 (0-24% control)
[13]; Table I, 2 WAT, 11.2 kg/h
  post-emergent herbicidal activity index: 0 (0-24% control)
[13]; Table II, 2 WAT, 0.28 kg/h
  post-emergent herbicidal activity index: 0 (0-24% control)
[13]; Table II, 2 WAT, 1.12 kg/h
  post-emergent herbicidal activity index: 0 (0-24% control)
[13]; Table II, 2 WAT, 5.6 kg/h
  post-emergent herbicidal activity index: 1 (25-49% control)
[14]; 2 WAT, 0.28 kg/h
  post-emergent herbicidal activity index: 0 (0-24% control)
[14]; 2 WAT, 1.12 kg/h
  post-emergent herbicidal activity index: 0 (0-24% control)
[14]; 2 WAT, 5.6 kg/h
  post-emergent herbicidal activity index: 1 (25-49% control)
[15]; 2 WAT, 0.28 kg/h
  post-emergent herbicidal activity index: 0 (0-24% control)
[15]; 2 WAT, 1.12 kg/h
  post-emergent herbicidal activity index: 0 (0-24% control)
[15]; 2 WAT, 5.6 kg/h
  post-emergent herbicidal activity index: 1 (25-49% control)
[16]; 2 WAT, 0.28 kg/h
  post-emergent herbicidal activity index: 0 (0-24% control)
[16]; 2 WAT, 1.12 kg/h
  post-emergent herbicidal activity index: 0 (0-24% control)
[16]; 2 WAT, 5.6 kg/h
  post-emergent herbicidal activity index: 0 (0-24% control)
[17]; Table I, 2 WAT, 5.6 kg/h
  post-emergent herbicidal activity index: 0 (0-24% control)
[17]; Table I, 2 WAT, 11.2 kg/h
  post-emergent herbicidal activity index: 0 (0-24% control)
[17]; Table II, 2 WAT, 0.28 kg/h
  post-emergent herbicidal activity index: 0 (0-24% control)
[17]; Table II, 2 WAT, 1.12 kg/h
  post-emergent herbicidal activity index: 0 (0-24% control)
[17]; Table II, 2 WAT, 5.6 kg/h
  post-emergent herbicidal activity index: 1 (25-49% control)
[18]; 2 WAT, 0.28 kg/h
  post-emergent herbicidal activity index: 0 (0-24% control)
[18]; 2 WAT, 1.12 kg/h
  post-emergent herbicidal activity index: 0 (0-24% control)
[18]; 2 WAT, 5.6 kg/h
  post-emergent herbicidal activity index: 2 (50-74% control)
[19]; 2 WAT, 0.28 kg/h
  post-emergent herbicidal activity index: 0 (0-24% control)
[19]; 2 WAT, 1.12 kg/h
  post-emergent herbicidal activity index: 0 (0-24% control)
[19]; 2 WAT, 5.6 kg/h
  post-emergent herbicidal activity index: 0 (0-24% control)
[20]; 2 WAT, 5.6 kg/h
  post-emergent herbicidal activity index: 0 (0-24% control)
[20]; 2 WAT, 11.2 kg/h
  post-emergent herbicidal activity index: 0 (0-24% control)

## CCOC(=O)CNCP(=O)(OC(C)CC(=O)OCC)OC(C)CC(=O)OCC (stereo not drawn) [Example 15, butanoic acid, 3,3'-[[[[(2-ethoxy-2-oxoethyl]amino]methyl]phospinylidene]bis-(oxy)]bis-, diethyl ester]
[1]; Table I, 2 WAT, 5.6 kg/h
  post-emergent herbicidal activity index: 0 (0-24% control)
[1]; Table I, 4 WAT, 11.2 kg/h
  post-emergent herbicidal activity index: 3 (75-99% control)
[1]; Table II, 2 WAT, 1.12 kg/h
  post-emergent herbicidal activity index: 0 (0-24% control)
[1]; Table II, 4 WAT, 5.6 kg/h
  post-emergent herbicidal activity index: 0 (0-24% control)
[2]; 2 WAT, 5.6 kg/h
  post-emergent herbicidal activity index: 0 (0-24% control)
[2]; 4 WAT, 11.2 kg/h
  post-emergent herbicidal activity index: 0 (0-24% control)
[3]; Table I, 2 WAT, 5.6 kg/h
  post-emergent herbicidal activity index: 0 (0-24% control)
[3]; Table I, 4 WAT, 11.2 kg/h
  post-emergent herbicidal activity index: 1 (25-49% control)
[3]; Table II, 2 WAT, 1.12 kg/h
  post-emergent herbicidal activity index: 0 (0-24% control)
[3]; Table II, 4 WAT, 5.6 kg/h
  post-emergent herbicidal activity index: 0 (0-24% control)
[4]; 2 WAT, 1.12 kg/h
  post-emergent herbicidal activity index: 0 (0-24% control)
[4]; 4 WAT, 5.6 kg/h
  post-emergent herbicidal activity index: 2 (50-74% control)
[5]; Table I, 2 WAT, 5.6 kg/h
  post-emergent herbicidal activity index: 0 (0-24% control)
[5]; Table I, 4 WAT, 11.2 kg/h
  post-emergent herbicidal activity index: 0 (0-24% control)
[5]; Table II, 2 WAT, 1.12 kg/h
  post-emergent herbicidal activity index: 0 (0-24% control)
[5]; Table II, 4 WAT, 5.6 kg/h
  post-emergent herbicidal activity index: 0 (0-24% control)
[6]; 2 WAT, 1.12 kg/h
  post-emergent herbicidal activity index: 0 (0-24% control)
[6]; 4 WAT, 5.6 kg/h
  post-emergent herbicidal activity index: 0 (0-24% control)
[7]; 2 WAT, 5.6 kg/h
  post-emergent herbicidal activity index: 0 (0-24% control)
[7]; 4 WAT, 11.2 kg/h
  post-emergent herbicidal activity index: 0 (0-24% control)
[8]; Table I, 2 WAT, 5.6 kg/h
  post-emergent herbicidal activity index: 0 (0-24% control)
[8]; Table I, 4 WAT, 11.2 kg/h
  post-emergent herbicidal activity index: 0 (0-24% control)
[8]; Table II, 2 WAT, 1.12 kg/h
  post-emergent herbicidal activity index: 0 (0-24% control)
[8]; Table II, 4 WAT, 5.6 kg/h
  post-emergent herbicidal activity index: 1 (25-49% control)
[9]; Table I, 2 WAT, 5.6 kg/h
  post-emergent herbicidal activity index: 0 (0-24% control)
[9]; Table I, 4 WAT, 11.2 kg/h
  post-emergent herbicidal activity index: 1 (25-49% control)
[9]; Table II, 2 WAT, 1.12 kg/h
  post-emergent herbicidal activity index: 0 (0-24% control)
[9]; Table II, 4 WAT, 5.6 kg/h
  post-emergent herbicidal activity index: 1 (25-49% control)
[10]; 2 WAT, 1.12 kg/h
  post-emergent herbicidal activity index: 0 (0-24% control)
[10]; 4 WAT, 5.6 kg/h
  post-emergent herbicidal activity index: 1 (25-49% control)
[11]; 2 WAT, 5.6 kg/h
  post-emergent herbicidal activity index: 0 (0-24% control)
[11]; 4 WAT, 11.2 kg/h
  post-emergent herbicidal activity index: 1 (25-49% control)
[12]; 2 WAT, 1.12 kg/h
  post-emergent herbicidal activity index: 0 (0-24% control)
[12]; 4 WAT, 5.6 kg/h
  post-emergent herbicidal activity index: 0 (0-24% control)
[13]; Table I, 2 WAT, 5.6 kg/h
  post-emergent herbicidal activity index: 0 (0-24% control)
[13]; Table I, 4 WAT, 11.2 kg/h
  post-emergent herbicidal activity index: 0 (0-24% control)
[13]; Table II, 2 WAT, 1.12 kg/h
  post-emergent herbicidal activity index: 0 (0-24% control)
[13]; Table II, 4 WAT, 5.6 kg/h
  post-emergent herbicidal activity index: 0 (0-24% control)
[14]; 2 WAT, 1.12 kg/h
  post-emergent herbicidal activity index: 0 (0-24% control)
[14]; 4 WAT, 5.6 kg/h
  post-emergent herbicidal activity index: 0 (0-24% control)
[15]; 2 WAT, 1.12 kg/h
  post-emergent herbicidal activity index: 0 (0-24% control)
[15]; 4 WAT, 5.6 kg/h
  post-emergent herbicidal activity index: 1 (25-49% control)
[16]; 2 WAT, 1.12 kg/h
  post-emergent herbicidal activity index: 0 (0-24% control)
[16]; 4 WAT, 5.6 kg/h
  post-emergent herbicidal activity index: 0 (0-24% control)
[17]; Table I, 2 WAT, 5.6 kg/h
  post-emergent herbicidal activity index: 0 (0-24% control)
[17]; Table I, 4 WAT, 11.2 kg/h
  post-emergent herbicidal activity index: 0 (0-24% control)
[17]; Table II, 2 WAT, 1.12 kg/h
  post-emergent herbicidal activity index: 0 (0-24% control)
[17]; Table II, 4 WAT, 5.6 kg/h
  post-emergent herbicidal activity index: 0 (0-24% control)
[18]; 2 WAT, 1.12 kg/h
  post-emergent herbicidal activity index: 0 (0-24% control)
[18]; 4 WAT, 5.6 kg/h
  post-emergent herbicidal activity index: 1 (25-49% control)
[19]; 2 WAT, 1.12 kg/h
  post-emergent herbicidal activity index: 0 (0-24% control)
[19]; 4 WAT, 5.6 kg/h
  post-emergent herbicidal activity index: 0 (0-24% control)
[20]; 2 WAT, 5.6 kg/h
  post-emergent herbicidal activity index: 0 (0-24% control)
[20]; 4 WAT, 11.2 kg/h
  post-emergent herbicidal activity index: 1 (25-49% control)
